Results on 15 compounds are retold here after patent US7713994B2 (Wyeth LLC, priority 2005, dated 2010).

One experiment has as its target T1, cyclin D1/cdk 4 enzyme (Homo sapiens, UniProt P11802).
T1 construct: made in house; host or cells: Sf9 insect cells, recombinant baculovirus
The experiment in a line: CDK4 ELISA kinase assay (phospho-Rb ser 795 detection). It is filed as biochemical. An outline of the steps:
(§1)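 Sf9-derived cyclin/CDK, 200 μM ATP, immobilized GST-Rb; 30° C/1 h. Detection: phospho-Ser795 Ab, HRP, TMB, OD450.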
(In an ELISA, binding on a coated surface is turned into a signal by an enzyme label.)

The target in the next experiment is T2, cyclin E/CDK2 enzyme (Homo sapiens, UniProt P24941).
T2 construct: made in house; host or cells: Sf9 insect cells, recombinant baculovirus
The experiment in a line: CDK2 ELISA kinase assay (phospho-Rb ser 795 detection). It is filed as biochemical. The method, boiled down: as §1

In a further experiment the target is T3, cyclin B/CDK1 enzyme (Homo sapiens, UniProt P06493).
T3 construct: purchased New England BioLabs; host or cells: Sf9 insect cells, recombinant baculovirus
T3 sequence (P06493 whole entry): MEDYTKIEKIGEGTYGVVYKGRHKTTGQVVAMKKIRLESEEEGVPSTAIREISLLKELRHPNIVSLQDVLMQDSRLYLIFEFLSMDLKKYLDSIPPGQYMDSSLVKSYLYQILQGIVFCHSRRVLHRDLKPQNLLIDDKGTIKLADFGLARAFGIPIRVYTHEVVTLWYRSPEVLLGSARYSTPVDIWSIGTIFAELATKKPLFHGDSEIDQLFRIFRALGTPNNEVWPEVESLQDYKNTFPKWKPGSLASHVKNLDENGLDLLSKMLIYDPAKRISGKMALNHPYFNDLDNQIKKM
T3 sequence (P14635 whole entry partner): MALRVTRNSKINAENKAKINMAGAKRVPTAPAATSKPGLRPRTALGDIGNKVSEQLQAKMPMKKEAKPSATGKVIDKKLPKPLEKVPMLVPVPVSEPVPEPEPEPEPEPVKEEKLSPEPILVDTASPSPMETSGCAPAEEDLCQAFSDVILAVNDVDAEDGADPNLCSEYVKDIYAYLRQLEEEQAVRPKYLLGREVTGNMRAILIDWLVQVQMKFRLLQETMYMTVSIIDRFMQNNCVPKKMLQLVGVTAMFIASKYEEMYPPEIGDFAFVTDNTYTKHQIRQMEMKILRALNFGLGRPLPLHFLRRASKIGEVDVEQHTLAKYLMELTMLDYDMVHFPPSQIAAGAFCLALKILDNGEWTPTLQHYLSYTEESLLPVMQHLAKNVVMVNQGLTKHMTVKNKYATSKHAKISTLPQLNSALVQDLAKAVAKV
The experiment in a line: CDK1 ELISA kinase assay (phospho-Rb ser 795 detection). The experiment is classed as biochemical. An outline of the steps:
as §1

In a further experiment the test system is BT474. The experiment in a line: Cytotoxicity assay (SRB), BT474. It is filed as cell-based. The method, boiled down: (§2)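 Protein staining with sulforhodamine B after cold TCA fixation served as the survival endpoint (A540, relative to untreated cells). Before staining, cells were incubated with compound at 37 °C, 7% CO2 for 3 days, or 6 days for BT474.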

A further experiment concerns HCT-116. The experiment in a line: Cytotoxicity assay (SRB), HCT-116. The experiment is classed as cell-based. Conditions: Homo sapiens, HCT-116, 72 h, HCT116 cells, SRB, read-out: In Vitro Cellular Activity IC50 HCT116. An outline of the steps:
as §2

Another experiment deals with LoVo. The experiment in a line: Cytotoxicity assay (SRB), LoVo. Conditions: Homo sapiens, LoVo, 72 h, LoVo cells, SRB, read-out: In Vitro Cellular Activity IC50 LOVO. It is filed as cell-based. An outline of the steps: as §2
The next experiment concerns MCF-7. The experiment in a line: Cytotoxicity assay (SRB), MCF-7. It is filed as cell-based. Conditions: Homo sapiens, MCF7, 72 h, MCF-7 cells, SRB, read-out: In Vitro Cellular Activity IC50 MCF-7. An outline of the steps:
as §2

Where [1] appears, read: In Vitro Enzyme Assay, cyclin D1/cdk 4, read-out: CDK4 IC50.
Where [2] appears, read: In Vitro Enzyme Assay, cyclin E/CDK2, read-out: CDK2 IC50.
[3] abbreviates: In Vitro Enzyme Assay, cyclin B/CDK1, read-out: CDK1 IC50.
[4] abbreviates: Homo sapiens, BT-474, 144 h, BT474 cells, 6 days, SRB; read-out: In Vitro Cellular Activity IC50 BT474.
[5] abbreviates: In Vitro Enzyme Assay, read-out: CDK4 IC50.
The mark [6] stands for this setting: In Vitro Enzyme Assay, read-out: CDK2 IC50.
[7] abbreviates: In Vitro Enzyme Assay, read-out: CDK1 IC50.

Where two headings read alike, the source gives them in different places.

T1 sequence (P11802 whole entry, species assumed): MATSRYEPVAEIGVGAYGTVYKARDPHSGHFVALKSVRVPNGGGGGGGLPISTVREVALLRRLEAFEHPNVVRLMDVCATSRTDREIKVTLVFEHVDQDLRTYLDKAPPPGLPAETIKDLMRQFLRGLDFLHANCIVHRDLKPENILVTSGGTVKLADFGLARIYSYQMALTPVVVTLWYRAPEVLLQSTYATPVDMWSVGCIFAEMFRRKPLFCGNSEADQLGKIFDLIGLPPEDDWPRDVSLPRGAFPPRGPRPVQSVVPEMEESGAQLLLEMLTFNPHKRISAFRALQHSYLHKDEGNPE
T1 sequence (P24385 whole entry partner, species assumed): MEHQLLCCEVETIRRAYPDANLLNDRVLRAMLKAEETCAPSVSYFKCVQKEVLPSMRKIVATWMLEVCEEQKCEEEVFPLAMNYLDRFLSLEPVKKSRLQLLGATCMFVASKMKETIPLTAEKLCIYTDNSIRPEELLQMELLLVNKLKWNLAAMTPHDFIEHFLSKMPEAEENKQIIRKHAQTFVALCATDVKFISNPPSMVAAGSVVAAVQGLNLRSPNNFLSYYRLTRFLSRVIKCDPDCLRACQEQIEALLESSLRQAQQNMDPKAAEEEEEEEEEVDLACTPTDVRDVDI

For the compound `COc1ccc(NC=C2C(=O)NCc3cc(-c4ccc[nH]4)ccc32)cc1` [Example 849, 4-[(4-Methoxy-phenylamino)-methylene]-7-(1H-pyrrol-2-yl)-1,4-dihydro-2H-isoquinolin-3-one], the half-maximal inhibitory concentration (IC50) on cyclin D1/cdk 4 enzyme (setting [1]) was > 50 µM; on cyclin E/CDK2 enzyme (setting [2]), 40.6 µM; at cyclin B/CDK1 enzyme (setting [3]) it was > 50 µM; in the experiment with BT474 (setting [4]), 6.8 µM; in the experiment on HCT-116 (3 days) it was 12.8 µM; with LoVo (3 days) it was 15.9 µM. Besides, in the experiment with MCF-7 (3 days), the IC50 was found to be 4.3 µM.

On to `COc1ccc(NC=C2C(=O)NCc3cc(-c4cc[nH]c4)ccc32)cc1` [Example 850, 4-[(4-Methoxy-phenylamino)-methylene]-7-(1H-pyrrol-3-yl)-1,4-dihydro-2H-isoquinolin-3-one], for which the IC50 was > 50 µM at cyclin D1/cdk 4 enzyme (setting [1]); 19.7 µM on cyclin E/CDK2 enzyme (setting [2]); > 50 µM at cyclin B/CDK1 enzyme (setting [3]); 46.5 µM in the experiment with BT474 (setting [4]); 16 µM in the experiment on HCT-116 (3 days); 24.2 µM in the experiment with LoVo (3 days). The IC50 in the experiment with MCF-7 (3 days) is > 50 µM.

As for `CCN(CC)CCn1ccc2cc(-c3ccc4c(c3)C(=CNc3ccc(N5CCN(C)CC5)cc3)C(=O)NC4=O)ccc21` [Example 852, 6-[1-(2-Diethylamino-ethyl)-1H-indol-5-yl]-4-{[4-(4-methyl-piperazin-1-yl)-phenylamino]-methylene}-4H-isoquinoline-1,3-dione], the IC50 on cyclin D1/cdk 4 enzyme (setting [1]) was 0.31 µM; at cyclin E/CDK2 enzyme (setting [2]) it was > 50 µM; on cyclin B/CDK1 enzyme (setting [3]) it was > 50 µM; with BT474 (setting [4]) it was > 50 µM; in the experiment with HCT-116 (3 days), > 50 µM; in the experiment with LoVo (3 days), > 50 µM. In addition, the IC50 in the experiment on MCF-7 (3 days) turned out to be 46.3 µM.

For `CN1CCN(c2ccc(NC=C3C(=O)NC(=O)c4ccc(-c5ccn(CCCC#N)c5)cc43)cc2)CC1` [Example 855, 4-[3-(4-{[4-(4-Methyl-piperazin-1-yl)-phenylamino]-methylene}-1,3-dioxo-1,2,3,4-tetrahydro-isoquinolin-6-yl)-pyrrol-1-yl]-butyronitrile], the IC50 at cyclin D1/cdk 4 enzyme (setting [1]) was 0.31 µM; at cyclin E/CDK2 enzyme (setting [2]), > 50 µM; at cyclin B/CDK1 enzyme (setting [3]), > 50 µM; with BT474 (setting [4]) it was 43.3 µM; in the experiment on HCT-116 (3 days), > 50 µM; with LoVo (3 days), > 50 µM. For the same compound, in the experiment on MCF-7 (3 days), the IC50 amounted to 42.6 µM.

As to `N=C(N)c1ccc(NC=C2C(=O)NCc3cc(Br)ccc32)cc1` [Example 861, 4-[(7-Bromo-3-oxo-2,3-dihydro-1H-isoquinolin-4-ylidenemethyl)-amino]-benzamidine], the IC50 at cyclin D1/cdk 4 enzyme (setting [1]) is 14.3 µM; at cyclin E/CDK2 enzyme (setting [2]), 3.6 µM; at cyclin B/CDK1 enzyme (setting [3]) it was > 50 µM; with BT474 (setting [4]) it was 45.4 µM; in the experiment with HCT-116 (3 days), > 50 µM; with LoVo (3 days), > 50 µM. Moreover, the IC50 in the experiment on MCF-7 (3 days) is > 50 µM.

Regarding `O=C1NCc2cc(Br)ccc2C1=CNc1ccc(CCO)cc1` [Example 863, 7-Bromo-4-{[4-(2-hydroxy-ethyl)-phenylamino]-methylene}-1,4-dihydro-2H-isoquinolin-3-one], the 50% inhibitory concentration (IC50) at cyclin D1/cdk 4 enzyme (setting [1]) is 20.1 µM; on cyclin E/CDK2 enzyme (setting [2]), 18 µM; at cyclin B/CDK1 enzyme (setting [3]), 37.1 µM; with BT474 (setting [4]) it was 31.1 µM; in the experiment with HCT-116 (3 days) it was 11.2 µM; in the experiment on LoVo (3 days) it was 10.2 µM. In addition, the IC50 in the experiment on MCF-7 (3 days) came out at 16.3 µM.

Take `CN(CCN1CCCC1)c1ccc(N/C=C2\C(=O)NC(=O)c3ccc(Br)cc32)cc1` [Example 864, (4Z)-6-Bromo-4-[({4-[methyl(2-pyrrolidin-1-ylethyl)amino]phenyl}amino)methylene]isoquinoline-1,3(2H,4H)-dione]: the IC50 was 2.5 µM at cyclin D1/cdk 4 enzyme (setting [1]); > 50 µM at cyclin E/CDK2 enzyme (setting [2]); > 50 µM at cyclin B/CDK1 enzyme (setting [3]); 7.9 µM with BT474 (setting [4]); 3.1 µM in the experiment on HCT-116 (3 days); 3.8 µM in the experiment with LoVo (3 days). In the experiment on MCF-7 (3 days), the IC50 is 3.6 µM.

`CN(CCN1CCCCC1)c1ccc(N/C=C2\C(=O)NC(=O)c3ccc(Br)cc32)cc1` [Example 865, (4Z)-6-bromo-4-[({4-[methyl(2-piperidin-1-ylethyl)amino]phenyl}amino)methylene]isoquinoline-1,3(2H,4H)-dione]: the IC50 on cyclin D1/cdk 4 enzyme (setting [5]) is 4.3 µM; at cyclin E/CDK2 enzyme (setting [6]), > 50 µM; on cyclin B/CDK1 enzyme (setting [7]), > 50 µM; in the experiment with BT474 (setting [4]) it was 7.5 µM; with HCT-116 (3 days), 3.1 µM; with LoVo (3 days), 3.6 µM. For the same compound, the IC50 with MCF-7 (3 days) turned out to be 5.3 µM.

Turning to `CN(C)CCOc1ccc(N/C=C2\C(=O)NC(=O)c3ccc(Br)cc32)cc1` [Example 867, (4Z)-6-Bromo-4-[({4-[2-(dimethylamino)ethoxy]phenyl}amino)methylene]isoquinoline-1,3(2H,4H)-dione], the IC50 on cyclin D1/cdk 4 enzyme (setting [5]) is 0.48 µM; on cyclin E/CDK2 enzyme (setting [6]), > 50 µM; on cyclin B/CDK1 enzyme (setting [7]) it was > 50 µM; with BT474 (setting [4]), 8.3 µM; with HCT-116 (3 days) it was 3.5 µM; with LoVo (3 days), 5.3 µM. Besides, the IC50 in the experiment with MCF-7 (3 days) was determined as 6.7 µM.

For `CN1Cc2ccc(N/C=C3\C(=O)NC(=O)c4ccc(Br)cc43)cc2C1` [Example 868, (4Z)-6-Bromo-4-{[(2-methyl-2,3-dihydro-1H-isoindol-5-yl)amino]methylene}isoquinoline-1,3(2H,4H)-dione], the IC50 on cyclin D1/cdk 4 enzyme (setting [5]) stood at 1.2 µM; at cyclin E/CDK2 enzyme (setting [6]), 2.5 µM; at cyclin B/CDK1 enzyme (setting [7]), 20.7 µM; in the experiment with BT474 (setting [4]), 6.8 µM; in the experiment with HCT-116 (3 days) it was 2.5 µM; with LoVo (3 days), 3.9 µM. Also, the IC50 with MCF-7 (3 days) amounted to 5.5 µM.

Regarding `O=C1NC(=O)c2ccc(Br)cc2/C1=C/Nc1ccc(-n2ccnc2)cc1` [Example 869, (4Z)-6-Bromo-4-({[4-(1H-imidazol-1-yl)phenyl]amino}methylene)isoquinoline-1,3(2H,4H)-dione], the IC50 on cyclin D1/cdk 4 enzyme (setting [5]) was 22.6 µM; on cyclin E/CDK2 enzyme (setting [6]), 14.7 µM; on cyclin B/CDK1 enzyme (setting [7]), > 50 µM; in the experiment on BT474 (setting [4]) it was > 50 µM; in the experiment with HCT-116 (3 days) it was 5.4 µM; with LoVo (3 days) it was > 50 µM. For the same compound, the IC50 with MCF-7 (3 days) was > 50 µM.

For `CC(=O)Oc1cc(CN/C=C2\C(=O)NC(=O)c3ccc(Br)cc32)cc2c1OC(C)(C)O2` [Example 872, 6-({[(Z)-(6-Bromo-1,3-dioxo-2,3-dihydroisoquinolin-4(1H)-ylidene)methyl]amino}methyl)-2,2-dimethyl-1,3-benzodioxol-4-yl acetate], the IC50 at cyclin D1/cdk 4 enzyme (setting [5]) was 34.7 µM; on cyclin E/CDK2 enzyme (setting [6]), 23.6 µM; on cyclin B/CDK1 enzyme (setting [7]), 1.2 µM; with BT474 (setting [4]), > 50 µM; in the experiment on HCT-116 (3 days) it was 28.6 µM; in the experiment on LoVo (3 days) it was 47.1 µM. Besides, the half-inhibitory concentration (IC50) in the experiment on MCF-7 (3 days) is 34.8 µM.

On to `CC1(C)Oc2cc(CN/C=C3\C(=O)NC(=O)c4ccc(Br)cc43)cc(OC(=O)C3CC3)c2O1` [Example 873, 6-({[(Z)-(6-Bromo-1,3-dioxo-2,3-dihydroisoquinolin-4(1H)-ylidene)methyl]amino}methyl)-2,2-dimethyl-1,3-benzodioxol-4-yl cyclopropanecarboxylate], for which the IC50 is > 50 µM at cyclin D1/cdk 4 enzyme (setting [5]); 24.7 µM at cyclin E/CDK2 enzyme (setting [6]); 1.9 µM on cyclin B/CDK1 enzyme (setting [7]); 42.7 µM in the experiment on BT474 (setting [4]); 24.5 µM in the experiment with HCT-116 (3 days); 41.1 µM in the experiment with LoVo (3 days). For the same compound, the IC50 in the experiment on MCF-7 (3 days) amounted to 29.2 µM.

Turning to `CN(C)CCCc1ccc(N/C=C2\C(=O)NC(=O)c3ccc(Br)cc32)cc1` [Example 874, (4Z)-6-Bromo-4-[({4-[3-(dimethylamino)propyl]phenyl}amino)methylene]isoquinoline-1,3(2H,4H)-dione], the IC50 on cyclin D1/cdk 4 enzyme (setting [5]) is 3 µM; at cyclin E/CDK2 enzyme (setting [6]), 38.8 µM; at cyclin B/CDK1 enzyme (setting [7]) it was > 50 µM; with BT474 (setting [4]) it was 27.4 µM; with HCT-116 (3 days), 12.6 µM; in the experiment with LoVo (3 days) it was 23.7 µM. Further, in the experiment on MCF-7 (3 days), the IC50 was determined as 7.2 µM.

Consider `O=C1NC(=O)c2ccc(Br)cc2/C1=C/Nc1ccc(CN2CCC(O)CC2)cc1` [compound 75], for which the IC50 is 0.29 µM on cyclin D1/cdk 4 enzyme (In Vitro Enzyme Assays, 200 μM ATP, read-out: CDK4 IC50); 7.2 µM at cyclin E/CDK2 enzyme (In Vitro Enzyme Assays, read-out: CDK2 IC50); > 50 µM on cyclin B/CDK1 enzyme (In Vitro Enzyme Assays, read-out: CDK1 IC50); 9.7 µM with BT474 (Homo sapiens, BT-474, 144 h, BT474 cells, SRB, 6 days; read-out: In Vitro Cellular Activity IC50 BT474); 5.8 µM in the experiment with HCT-116 (three days); 6 µM in the experiment with LoVo (three days). The IC50 with MCF-7 (three days) worked out at 4.3 µM.

What is called IC50 is the concentration that inhibits the measured activity by half.
